# pEC50: −log10 of the molar value.
# Columns and labels:
# Plasmodium falciparum [1] = experiment: NOVARTIS: Inhibition of Plasmodium falciparum 3D7 (drug-susceptible) proliferation in erythrocyte-based infection assay; assay type: functional, organism-based; conditions: Plasmodium falciparum, 3D7
# [2] = NOVARTIS: Cytotoxicity against human hepatocellular carcinoma cell line (Huh7); assay type: toxicity, cell-based, Huh-7; conditions: Huh7 cells (hepatocellular carcinoma cell line)
# Plasmodium falciparum [3] = experiment: NOVARTIS: Inhibition of Plasmodium falciparum W2 (drug-resistant) proliferation in erythrocyte-based infection assay; assay type: functional, organism-based; conditions: Plasmodium falciparum, W2; read-out: EC50
SMILES,pEC50 (Plasmodium falciparum [1]),CC50 [2] [µM],pEC50 (Plasmodium falciparum [3])
CCCCc1ccc(C(=O)N(C)CCCNc2ccnc3cc(Cl)ccc23)cc1,6.37,> 10,7.38
O=C(c1ccc([N+](=O)[O-])cc1)N1CCC(c2nc(O)c3nnn(Cc4c(F)cccc4Cl)c3n2)CC1,6.68,> 100,6.40
COc1ccc(NC2=C(c3ccc(OC)cc3)C(=O)c3ccccc32)cc1,6.36,> 100,6.37
CCCc1nc2ccc(NC(=O)c3ccco3)cc2c(=O)n1Cc1ccc(-c2ccccc2)cc1,6.58,> 100,6.37
COc1ccc2c(c1)N(C(=O)CSc1nc3ccccc3o1)C(C)(C)c1ssc(=S)c1-2,6.46,> 100,6.41
C=CCc1cc(C=c2sc3n(c2=O)C(c2ccccc2)C(C(=O)OCC)=C(C)N=3)cc(OC)c1O (configuration not stated),5.60,> 100,6.41
O=C1CC(c2ccc(O)cc2)C2=C(CC(c3ccccc3Cl)CC2=O)N1 (configuration not stated),6.17,> 100,6.41
CCOC(=O)c1ccc(NC2=C(N3CCCCC3)C(=O)c3ccccc3C2=O)cc1,6.61,> 80.5,6.48
O=C(NCCc1ccccc1)c1cnc(NCCCN2CCCC2)nc1NCC1CCCCC1,6.22,> 10,< 7.37
CCOC(=O)c1c(S(=O)(=O)Nc2ccc(C(C)(C)C)cc2)c(-c2ccccc2)n(-c2ccccc2)c1C,6.16,> 100,6.37
Cc1c(Cl)cccc1NC(=S)N1CCCN(c2ccc(C(F)(F)F)cc2[N+](=O)[O-])CC1,6.60,51.4,6.69
Cn1c(SCCCCNC(=O)c2cc([N+](=O)[O-])cc([N+](=O)[O-])c2)nc(-c2ccccc2)c1-c1ccccc1,5.85,> 8.57,7.47
Cc1ccn2c(NC(C)(C)CC(C)(C)C)c(-c3ccccc3OC(=O)c3cccs3)nc2c1,6.18,> 10,7.41
CC(C)CSc1nc2sc3c(c2c(=O)n1-c1ccccc1)CCN(Cc1ccccc1)C3,6.02,> 100,6.41
CCC(CC)CN1CCC(O)(c2ccc3oc(C(=O)Nc4ccc(OC)c(OC)c4)cc3c2)CC1,6.46,> 85.9,6.44
OC(CN1CCN(Cc2ccccc2)CC1)Cn1c2ccc(Cl)cc2c2cc(Cl)ccc21 (configuration not stated),6.66,15.7,7.18
CN(C)CCNc1c2c(nc3ccccc13)CCC2,6.24,61.4,6.62

SMILES,pEC50 (Plasmodium falciparum [1]),CC50 [2] [µM],pEC50 (Plasmodium falciparum [3])
OC(CN1CCN(CC=Cc2ccccc2)CC1)Cn1c2ccc(Cl)cc2c2cc(Cl)ccc21 (configuration not stated),6.74,17.9,7.12
C=CCn1c(=N)n(CC(O)c2ccc(Cl)c(Cl)c2)c2ccccc21 (configuration not stated),6.85,14.7,7.23
Cc1cc(=O)oc2c1ccc1oc(C(=O)c3ccccc3)c(C)c12,6.36,> 100,6.41
CC(C)(C)CC(C)(C)Nc1c(-c2ccccc2OC(=O)c2cccc(Cl)c2)nc2ccccn12,6.20,> 10,7.38
CCC1CCCCN1C(=O)C1CC(=O)N(c2ccc(OC)cc2)C1c1ccc(OC)cc1 (configuration not stated),6.41,> 100,6.40
O=C(NC(=CC=Cc1ccccc1)C(=O)N1CCCCC1)c1ccc([N+](=O)[O-])cc1,5.08,> 100,6.41
COc1cc(C2C3=C(CC(C)(C)CC3=O)Nc3ccccc3N2C(=O)C(C)C)cc(OC)c1OC (configuration not stated),< 5.90,> 10,7.39
CC(NC(=S)N(Cc1ccco1)Cc1cc2cc3c(cc2[nH]c1=O)OCO3)c1ccccc1 (configuration not stated),5.86,> 100,6.39
CCC12C(=O)C(CC)(C(c3ccccc3)=C1c1ccccc1)C1C(=O)N(c3cccc(C(F)(F)F)c3)C(=O)C12 (configuration not stated),5.62,> 100,6.40
CCCCNC(=O)C(c1cccc(OC)c1)N1C(=O)c2cc(OCCc3cccc(OC)c3)ccc2NC(=O)C1CO (configuration not stated),6.96,> 10,7.37
CCCc1c(C)nc2ccccc2c1O,6.20,> 100,6.37
S=C(Nc1ccccc1)N1CCCN(c2nc3ccc(Cl)cc3s2)CC1,6.30,> 86.9,6.43
COc1cccc(CCN2Cc3ccc(C(=O)NC(C)C)cc3N=C2c2cccnc2)c1,7.77,> 10,< 7.37
O=C(Nc1ccc(-c2nc3ccccc3[nH]2)cc1)c1cccc(C(=O)Nc2ccc(-c3nc4ccccc4[nH]3)cc2)n1,6.92,31.7,6.90
Cc1onc(-c2ccccc2)c1C(=O)N1CCC(CNc2c(-c3ccc(F)cc3)nc3ccccn23)CC1,6.17,45,6.75
O=C(c1ccccc1)N1CCN(c2ccccc2NC(=O)C(Cl)(Cl)Cl)CC1,6.27,> 100,6.37
COc1ccc(-c2c[n+](CC(=O)c3ccc([N+](=O)[O-])cc3)c3n2CCC3)cc1,6.29,> 100,6.37
